Results on one compound are retold here after publication PMC12169614, “Exploring Long Arm Amide-Linked Side Chains in the Design of Antifungal Azole Inhibitors of Sterol 14α-Demethylase (CYP51)” (Journal of Medicinal Chemistry, 2025).

This assay addresses wild-type CaCYP51 (Candida albicans, UniProt P10613). The assay is described as follows: Reconstituted CYP51 activity assay, wild type. The format is biochemical, C. albicans. To be noted: 1 μM CaCyp51, 50 μM lanosterol; duplicate, mean ± SD. Here is the method: The reconstituted CYP51 assay previously described contained 1 μM CaCyp51, 2 μM Homo sapiens cytochrome P450 reductase and 50 μM lanosterol in a final volume of 500 μL. After the addition of azole in DMSO (2.5 μL), reactions were incubated at 37 °C for 10 min prior to initiation by the addition of 100 μL 20 mM β-NADPH-Na4. Sterol substrates and products were extracted with ethyl acetate, derivatized with N,O-bis(trimethylsilyl)-trifluoroacetamide (BSTFA)–trimethylchlorosilane (TMCS) (99:1) in the presence of anhydrous pyridine, and analyzed by GC/MS as described previously. IC50 determinations were performed in duplicate. Nonlinear regression of inhibitor concentration vs normalized response was calculated by GraphPad Prism 10.4.0 for Windows (GraphPad Software, Boston, Massachusetts, USA, www.graphpad.com).

wild-type CaCYP51, sequence (P10613 whole entry): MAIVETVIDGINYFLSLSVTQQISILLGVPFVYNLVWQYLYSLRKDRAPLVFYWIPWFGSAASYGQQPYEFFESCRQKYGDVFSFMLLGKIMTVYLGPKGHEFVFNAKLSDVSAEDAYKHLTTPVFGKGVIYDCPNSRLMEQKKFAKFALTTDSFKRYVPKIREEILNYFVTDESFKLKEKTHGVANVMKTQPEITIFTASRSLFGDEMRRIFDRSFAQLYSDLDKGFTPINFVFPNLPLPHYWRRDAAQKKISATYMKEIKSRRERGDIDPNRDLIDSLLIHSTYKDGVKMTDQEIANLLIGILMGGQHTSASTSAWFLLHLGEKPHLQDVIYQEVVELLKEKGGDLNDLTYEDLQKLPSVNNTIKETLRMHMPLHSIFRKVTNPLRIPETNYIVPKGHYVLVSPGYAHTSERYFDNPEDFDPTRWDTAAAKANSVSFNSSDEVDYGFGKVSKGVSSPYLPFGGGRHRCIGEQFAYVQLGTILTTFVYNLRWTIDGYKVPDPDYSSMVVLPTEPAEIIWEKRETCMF

As a reminder, the IC50 is the point on the concentration scale where inhibition reaches its midpoint. Higher therefore signals weaker potency. As for `O=C(NCC(O)(Cn1cncn1)c1ccc(F)cc1F)c1ccc(-c2ccc(OC(F)(F)F)cc2)cc1` (stereo not shown) [Compound 22, N-(2-(2,4-Difluorophenyl)-2-hydroxy-3-(1H-1,2,4-triazol-1-yl)propyl)-4’-(trifluoromethoxy)-[1,1’-biphenyl]-4-carboxamide], the IC50 came to 669 nM.
